# In patent US20250367215A1, “PHARMACEUTICAL COMBINATION COMPRISING A CHOLANE DERIVATIVE AND A STATIN OR URSODESOXYCHOLIC ACID” (BAR PHARMACEUTICALS SOCIETA' A RESPONSABILITA' LIMITATA, priority 2022, published 2025):
# System: C57BL6 mice
# Assay: HFD-F diet-induced NASH mouse model, BAR502 and UDCA (Example 2)
# Assay type: in vivo
# Conditions: C57BL6 mice on HFD-F for 61 days; oral from day 6; UDCA 30 mg/kg alone or with BAR502 30 mg/kg
# Excerpt: The mouse model of Example 1 was used once again. Using this mouse model, the inventors therefore investigated the effectiveness of the association between BAR502 and UDCA in preventing the development of NASH.
smiles,measurement,value
"C[C@H](CCC(=O)O)[C@H]1CC[C@H]2[C@@H]3[C@@H](O)C[C@@H]4C[C@H](O)CC[C@]4(C)[C@H]3CC[C@]12C [UDCA, ursodesoxycholic acid]","effect on insulin resistance, glucose load curve (OGTT) (FIG. 9)",beneficial effects on insulin resistance
